What all share (assay): cell-based
What all share (parameters): species or system HEK293A; AP-TGFα shedding assay, transfected GPCR plus chimeric Gα mixture, AP release as % of TPA response
What all share (details): HEK293-A

Assay [1] has as its target T1, 5-hydroxytryptamine receptor 1F (Homo sapiens, UniProt P30939).
T1 construct: gene HTR1F
T1 sequence (P30939 1-366): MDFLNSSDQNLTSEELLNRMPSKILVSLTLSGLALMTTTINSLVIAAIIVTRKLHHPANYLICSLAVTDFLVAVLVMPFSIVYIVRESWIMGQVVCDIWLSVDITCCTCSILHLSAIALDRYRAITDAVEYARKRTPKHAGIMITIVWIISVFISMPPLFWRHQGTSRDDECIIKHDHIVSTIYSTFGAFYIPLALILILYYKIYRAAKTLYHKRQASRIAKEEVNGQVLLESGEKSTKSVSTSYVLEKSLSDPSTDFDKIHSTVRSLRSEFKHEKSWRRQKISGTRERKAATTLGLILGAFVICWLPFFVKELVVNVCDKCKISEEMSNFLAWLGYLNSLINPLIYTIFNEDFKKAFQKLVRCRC

In assay [2] the target is T2, G protein-coupled receptor 65 (Homo sapiens, UniProt Q8IYL9).
T2 construct: gene GPR65

The target in assay [3] is T3, adenosine A2a receptor (Homo sapiens, UniProt P29274).
T3 construct: gene ADORA2A

Assay [4] deals with T4, chemokine (C-X3-C motif) receptor 1 (Homo sapiens, UniProt P49238).
T4 construct: gene CX3CR1
T4 sequence (P49238 1-355): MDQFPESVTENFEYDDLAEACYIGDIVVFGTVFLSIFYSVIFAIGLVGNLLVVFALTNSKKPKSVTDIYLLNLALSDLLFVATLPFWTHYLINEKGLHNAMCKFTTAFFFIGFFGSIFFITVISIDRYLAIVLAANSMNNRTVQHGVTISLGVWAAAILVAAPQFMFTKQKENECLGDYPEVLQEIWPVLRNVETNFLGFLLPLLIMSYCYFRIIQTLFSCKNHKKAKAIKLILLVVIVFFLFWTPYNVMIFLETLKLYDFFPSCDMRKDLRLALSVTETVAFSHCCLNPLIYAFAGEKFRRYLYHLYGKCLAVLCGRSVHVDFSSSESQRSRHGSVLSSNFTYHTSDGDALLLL

In assay [5] the target is T5, hypocretin (orexin) receptor 2 (Homo sapiens, UniProt O43614).
T5 construct: gene HCRTR2
T5 sequence (O43614 1-444): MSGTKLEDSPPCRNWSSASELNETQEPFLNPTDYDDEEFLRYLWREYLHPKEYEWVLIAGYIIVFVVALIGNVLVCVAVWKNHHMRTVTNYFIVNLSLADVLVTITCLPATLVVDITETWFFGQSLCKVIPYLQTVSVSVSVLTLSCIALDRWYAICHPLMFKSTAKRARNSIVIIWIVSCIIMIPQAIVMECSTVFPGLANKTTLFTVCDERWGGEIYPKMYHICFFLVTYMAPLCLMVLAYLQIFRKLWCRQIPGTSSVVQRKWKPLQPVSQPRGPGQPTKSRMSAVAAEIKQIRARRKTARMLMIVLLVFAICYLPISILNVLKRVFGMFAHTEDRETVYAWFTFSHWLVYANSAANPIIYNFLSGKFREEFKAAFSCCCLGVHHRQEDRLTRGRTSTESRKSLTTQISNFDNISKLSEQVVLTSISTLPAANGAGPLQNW

Assay [6] addresses T6, prostaglandin E receptor 3 iso6 (Homo sapiens, UniProt P43115).
T6 construct: gene PTGER3; iso6
T6 sequence (P43115 1-390): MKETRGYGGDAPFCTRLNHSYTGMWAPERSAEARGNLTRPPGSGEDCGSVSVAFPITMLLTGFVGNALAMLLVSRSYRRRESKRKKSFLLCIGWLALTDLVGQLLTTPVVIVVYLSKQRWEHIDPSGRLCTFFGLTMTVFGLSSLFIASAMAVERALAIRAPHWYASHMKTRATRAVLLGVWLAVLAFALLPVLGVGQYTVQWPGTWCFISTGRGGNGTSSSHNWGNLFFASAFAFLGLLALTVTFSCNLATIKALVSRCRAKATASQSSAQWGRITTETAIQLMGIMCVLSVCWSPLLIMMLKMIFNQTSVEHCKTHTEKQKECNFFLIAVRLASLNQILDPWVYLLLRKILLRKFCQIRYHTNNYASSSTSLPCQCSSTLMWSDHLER

For assay [7], the target named is T7, relaxin/insulin-like family peptide receptor 3 (Homo sapiens, UniProt Q9NSD7).
T7 construct: gene RXFP3
T7 sequence (Q9NSD7 1-469): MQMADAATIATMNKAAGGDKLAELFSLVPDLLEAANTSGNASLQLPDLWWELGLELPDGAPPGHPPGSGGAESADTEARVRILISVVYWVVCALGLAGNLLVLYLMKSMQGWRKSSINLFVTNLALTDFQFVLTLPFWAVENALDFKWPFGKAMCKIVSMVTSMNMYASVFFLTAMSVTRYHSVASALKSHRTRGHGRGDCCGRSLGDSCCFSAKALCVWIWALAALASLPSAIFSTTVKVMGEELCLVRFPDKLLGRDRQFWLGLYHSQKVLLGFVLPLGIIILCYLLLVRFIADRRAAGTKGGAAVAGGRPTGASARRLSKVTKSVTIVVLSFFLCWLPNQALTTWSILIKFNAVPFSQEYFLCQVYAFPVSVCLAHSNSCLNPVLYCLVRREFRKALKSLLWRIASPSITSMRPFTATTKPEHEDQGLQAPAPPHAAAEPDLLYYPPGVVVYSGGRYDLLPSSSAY

The mark [8] stands for this setting: read-out: % GPCR activation of 10μM Sofosbuvir compared to TPA.
Setting [9] is: read-out: % GPCR activation of 100μM Favipiravir compared to TPA.
The mark [10] stands for this setting: read-out: % GPCR activation of 10µM Remdesivir compared to TPA.
Setting [11] is: read-out: % GPCR activation of 10μM GS441524 compared to TPA.
[12] abbreviates: read-out: % GPCR activation of 10µM Molnupiravir compared to TPA.

Where two headings read alike, the source gives them in different places.

The results in this text go back to paper PMC10175918 (Communications Biology, 2023).

T2 sequence (Q8IYL9 whole entry): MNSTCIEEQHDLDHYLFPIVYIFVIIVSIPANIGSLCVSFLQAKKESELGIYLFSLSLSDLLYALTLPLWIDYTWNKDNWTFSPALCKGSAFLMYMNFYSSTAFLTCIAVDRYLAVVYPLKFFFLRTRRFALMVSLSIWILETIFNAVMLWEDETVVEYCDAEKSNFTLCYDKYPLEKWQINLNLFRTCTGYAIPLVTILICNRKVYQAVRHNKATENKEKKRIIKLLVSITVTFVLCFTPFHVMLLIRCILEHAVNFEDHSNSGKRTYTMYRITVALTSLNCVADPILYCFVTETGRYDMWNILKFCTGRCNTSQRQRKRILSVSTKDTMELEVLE
T3 sequence (P29274 whole entry): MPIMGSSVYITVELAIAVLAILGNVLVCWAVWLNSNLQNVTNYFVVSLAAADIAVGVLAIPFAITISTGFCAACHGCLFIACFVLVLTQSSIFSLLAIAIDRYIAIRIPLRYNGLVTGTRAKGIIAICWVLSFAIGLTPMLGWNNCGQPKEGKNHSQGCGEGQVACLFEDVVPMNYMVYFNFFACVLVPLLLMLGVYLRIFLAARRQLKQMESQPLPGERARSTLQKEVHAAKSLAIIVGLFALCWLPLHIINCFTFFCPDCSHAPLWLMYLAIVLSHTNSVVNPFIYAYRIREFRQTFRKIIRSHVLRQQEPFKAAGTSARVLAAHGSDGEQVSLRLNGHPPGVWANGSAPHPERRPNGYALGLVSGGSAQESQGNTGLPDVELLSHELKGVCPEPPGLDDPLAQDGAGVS

Take `CC(C)OC(=O)[C@H](C)N[P@](=O)(OC[C@H]1O[C@@H](n2ccc(=O)[nH]c2=O)[C@](C)(F)[C@@H]1O)Oc1ccccc1` [sofosbuvir]: the activity at 10 µM was -0.816% in assay [1] (setting [8]); -10.5% in assay [2] (setting [8]); -2.15% in assay [3] (setting [8]); 0.247% in assay [4] (setting [8]); -1.97% in assay [5] (setting [8]); -2.67% in assay [6] (setting [8]). Moreover, the activity at 10 µM in assay [7] (setting [8]) is -2.19%.

For the compound `NC(=O)c1nc(F)cnc1O` [favipiravir, 6-fluoro-3-hydroxy-2-pyrazinecarboxamide], the activity at 100 µM in assay [1] (setting [9]) worked out at 1.63%; in assay [2] (setting [9]) it was 1.28%; in assay [3] (setting [9]) it was 2.34%; in assay [4] (setting [9]), 0.0634%; in assay [5] (setting [9]) it was 0.725%; in assay [6] (setting [9]) it was 0.28%. Further, the activity at 100 µM in assay [7] (setting [9]) is 1.4%.

For `CCC(CC)COC(=O)[C@H](C)N[P@](=O)(OC[C@H]1O[C@@](C#N)(c2ccc3c(N)ncnn23)[C@H](O)[C@@H]1O)Oc1ccccc1` [remdesivir], the activity at 10 µM in assay [1] (setting [10]) is -2.15%; in assay [2] (setting [10]) it was -1.39%; in assay [3] (setting [10]), 3.96%; in assay [4] (setting [10]) it was 2.08%; in assay [5] (setting [10]), 0.000265%; in assay [6] (setting [10]), 1.47%. The activity at 10 µM in assay [7] (setting [10]) was determined as 3.55%.

As to `N#C[C@@]1(c2ccc3c(N)ncnn23)O[C@H](CO)[C@@H](O)[C@H]1O` [GS441524], the activity at 10 µM in assay [1] (setting [11]) was 0.356%; in assay [2] (setting [11]) it was -3.08%; in assay [3] (setting [11]), 1.63%; in assay [4] (setting [11]), -0.521%; in assay [5] (setting [11]), 2.17%; in assay [6] (setting [11]) it was -0.459%. The activity at 10 µM in assay [7] (setting [11]) was determined as 1.98%.

On to `CC(C)C(=O)OC[C@H]1O[C@@H](n2ccc(NO)nc2=O)[C@H](O)[C@@H]1O` [molnupiravir], for which the activity at 10 µM was 0.719% in assay [1] (setting [12]); -8.38% in assay [2] (setting [12]); -1.95% in assay [3] (setting [12]); -0.579% in assay [4] (setting [12]); 0.477% in assay [5] (setting [12]); -0.792% in assay [6] (setting [12]). The activity at 10 µM in assay [7] (setting [12]) is -2.92%.
